Assay [1] has as its system SW48 colon carcinoma cells. Kind of assay: Cell growth inhibition (CellTiter-Glo), SW48. Type of assay: cell-based. As to conditions: Homo sapiens, SW48, 72 h, 3 days. The text has this: (§1) Esophageal carcinoma cell line OE33 was purchased from ECACC European Collection of Cell Cultures (UK). Breast cancer cell line JIMT-1 and gastric carcinoma cell line MKN-45 were purchased from Deutsche Sammlung von Mikroorganismen and Zellkulturen GmbH (Germany); KPL-4, a human breast cancer cell line was kindly provided by Prof. J Kurebayashi (Kawasaki Medical School, Kurashiki, Japan). […] The LICR-LON-HN5 head and neck carcinoma cell line (HN5) was a gift from the Institute of Cancer Research, Surrey, U.K. HN5C12 was developed by single-cell cloning of HN5 followed by exposure to increasing concentrations of lapatinib. […] Cell growth inhibition was determined via CellTiter-Glo cell viability assays. […] ATP levels were determined by adding Cell Titer Glo0 (Promega), incubating for 20 minutes then the luminescent signal was read on the SpectraMax M5 plate with a 0.5 second integration time. Cell growth was calculated relative to vehicle (DMSO) treated control wells. […] CI values were calculated with the interpolated IC50 values and the mutually non-exclusive equation derived by Chou and […](a)+Db/IC50(b)+(Da×Db)/(IC50(a)×IC50(b)) where IC50(a) is the IC50 of the inhibitor A; IC50(b) is the IC50 for the inhibitor B; […] […] EOHSA at each dose was calculated as the minimum difference in average % inhibition between the combination and each monotherapy, from the appropriate ANOVA contrast. […]
A general note: ATP-based viability assays read luminescence as a measure of living cells.

Assay [2] has as its system AGS gastric carcinoma cells. Kind of assay: Cell growth inhibition (CellTiter-Glo), AGS. The format is cell-based. Particulars: Homo sapiens, 72 h, gastric_AGS, 3 days.
Excerpt: as §1

Assay [3] relates to N87 gastric carcinoma cells. Kind of assay: Cell growth inhibition (CellTiter-Glo), N87. Type of assay: cell-based. As to conditions: Homo sapiens, 72 h, 3 days. From the text: (§2) Esophageal carcinoma cell line OE33 was purchased from ECACC European Collection of Cell Cultures (UK). Breast cancer cell line JIMT-1 and gastric carcinoma cell line MKN-45 were purchased from Deutsche Sammlung von Mikroorganismen and Zellkulturen GmbH (Germany); KPL-4, a human breast cancer cell line was kindly provided by Prof. J Kurebayashi (Kawasaki Medical School, Kurashiki, Japan). […] The LICR-LON-HN5 head and neck carcinoma cell line (HN5) was a gift from the Institute of Cancer Research, Surrey, U.K. HN5C12 was developed by single-cell cloning of HN5 followed by exposure to increasing concentrations of lapatinib. […] Cell growth inhibition was determined via CellTiter-Glo cell viability assays. […] BT474-J4 and HN5C12 were washed with PBS and plated in their culture media without lapatinib. […] ATP levels were determined by adding Cell Titer Glo0 (Promega), incubating for 20 minutes then the luminescent signal was read on the SpectraMax M5 plate with a 0.5 second integration time. Cell growth was calculated relative to vehicle (DMSO) treated control wells. […] EOHSA at each dose was calculated as the minimum difference in average % inhibition between the combination and each monotherapy, from the appropriate ANOVA contrast. […] The p-values for both synergy and antagonism were calculated using this adjustment.

Assay [4] has as its system HCC1954 breast carcinoma cells. Kind of assay: Cell growth inhibition (CellTiter-Glo), HCC1954. Type of assay: cell-based. Particulars: Homo sapiens, HCC1954, 72 h, 3 days.
Excerpt: as §1

In assay [5] the test system is phosphorylation of HER2, AKT, ERK and cyclin D1 in BT474 cells. Kind of assay: Western blot analysis, BT474. The format is cell-based, human. Particulars: BT474, 1 μM, 4 h. For orientation: Immunoblotting shows a protein as a band on a membrane.
Procedure: Cells were plated at 250,000 to 500,000 per well in six-well plates (Falcon multiwell, Becton Dickinson, Franklin Lakes, N.J.). The following day, cells were treated with compounds in the growth medium containing 10% FBS. After treatment, cells were washed with cold PBS and lysed in the culture dishes using cell lysis buffer [40 mmol/L Tris-HCl (pH 7.4), 10% glycerol, 50 mmol/L beta-glycerophosphate, 5 mmol/L EGTA, 2 mmol/L EDTA, 0.35 mmol/L vanadate, 10 mmol/L NaF, and 0.3% Triton X-100] containing protease inhibitors (Complete Protease Inhibitor Tablets, Boehringer Mannheim, Indianapolis, Ind.). […] The membrane blots were rinsed with PBS and blocked in Odyssey Blocking buffer for 1 h at RT. Blots were probed with antibodies against specific proteins in blocking buffer plus 0.1% Tween 20 and incubated for 2 h at room temperature. The membranes were washed and incubated with IRDye 680 or IRDye 800 secondary antibodies at RT for 1 h in blocking buffer plus 0.1% Tween 20. The membranes were developed with Odyssey Infrared Imaging System (LI-COR Biosciences, Lincoln, Nebr.).
Cell lysate (50 μg of total protein) or proteins immunoprecipitated with anti-phospho-Tyrosine antibody were loaded in SDS-PAGE gel. The antibody against specific protein was used in the western blot analysis.
The subject of assay [6] is BT474 breast carcinoma cells. Kind of assay: Cell growth inhibition (CellTiter-Glo), BT474. The format is cell-based. Particulars: Homo sapiens, BT-474, 72 h, 3 days.
Excerpt: as §2

Assay [7] relates to OE33 esophageal carcinoma cells. Kind of assay: Cell growth inhibition (CellTiter-Glo), OE33. The format is cell-based, human. Particulars: 3 days. From the text:
Esophageal carcinoma cell line OE33 was purchased from ECACC European Collection of Cell Cultures (UK). Breast cancer cell line JIMT-1 and gastric carcinoma cell line MKN-45 were purchased from Deutsche Sammlung von Mikroorganismen and Zellkulturen GmbH (Germany); KPL-4, a human breast cancer cell line was kindly provided by Prof. J Kurebayashi (Kawasaki Medical School, Kurashiki, Japan). […] The LICR-LON-HN5 head and neck carcinoma cell line (HN5) was a gift from the Institute of Cancer Research, Surrey, U.K. HN5C12 was developed by single-cell cloning of HN5 followed by exposure to increasing concentrations of lapatinib. […] Cell growth inhibition was determined via CellTiter-Glo cell viability assays. […] BT474-J4 and HN5C12 were washed with PBS and plated in their culture media without lapatinib. […] ATP levels were determined by adding Cell Titer Glo0 (Promega), incubating for 20 minutes then the luminescent signal was read on the SpectraMax M5 plate with a 0.5 second integration time. Cell growth was calculated relative to vehicle (DMSO) treated control wells. […] Excess Over Highest Single Agent (EOHSA) is defined as a statistically significant improvement in the combination compared to the component monotherapies. […] Analysis was conducted using two-factor analysis of variance with interaction (model terms were dose of drug A, dose of drug B, and interaction between doses of drug A and B), followed by linear contrasts between each combination group and corresponding monotherapies. Analysis was conducted using SAS (version 9, provided by SAS Institute, Cary, N.C.). EOHSA at each dose was calculated as the minimum difference in average % inhibition between the combination and each monotherapy, from the appropriate ANOVA contrast. Since there are many comparisons for the % inhibition endpoint, p-value adjustment for multiple comparisons was performed. Hommel's procedure was implemented in order to improve the power while retaining […] Error Rate (FWE) control by using a sequentially rejective method. The p-values for both synergy and antagonism were calculated using this adjustment.

SMILES strings stand for the structures. Some results are limits rather than exact numbers.

The text below walks through data of patent publication US20130150363A1, “Method of Treating Cancer Using a cMET and AXL Inhibitor and an ErbB Inhibitor” (GlaxoSmithKline, priority 2008, published 2013).

As to `C#Cc1cccc(Nc2ncnc3cc(OCCOC)c(OCCOC)cc23)c1` [Erlotinib, N-(3-ethynylphenyl)-6,7-bis{[2-(methyloxy)ethyl]oxy}-4-quinazolinamine], the IC50 is 2.62 µM in assay [1] (colon_SW48, +HGF (2 ng/mL)); 2.35 µM in assay [1] (colon_SW48, −HGF); > 10 µM in assay [2] (+HGF (2 ng/mL)); > 10 µM in assay [2] (−HGF).
With `CS(=O)(=O)CCNCc1ccc(-c2ccc3ncnc(Nc4ccc(OCc5cccc(F)c5)c(Cl)c4)c3c2)o1` [Lapatinib, N-(3-chloro-4-{[(3-fluorophenyl)methyl]oxy}phenyl)-6-[5-({[2-(methylsulfonyl)ethyl]amino}methyl)-2-furanyl]-4-quinazolinamine], the IC50 in assay [3] (gastric_N87, +HGF (2 ng/mL)) was found to be 4.8 µM; in assay [3] (gastric_N87, −HGF) it was 0.05 µM; in assay [4] (breast_HCC1954, +HGF (2 ng/mL)), 5.27 µM; in assay [4] (breast_HCC1954, −HGF), 0.8 µM; in assay [6] (breast_BT474, +HGF (2 ng/mL)), 0.12 µM; in assay [6] (breast_BT474, −HGF) it was 0.11 µM. Moreover, the half-inhibitory concentration (IC50) is > 10 µM in assay [7] (Homo sapiens, OE33, 72 h, eso_OE33, +HGF (2 ng/mL)); 6.5 µM in assay [7] (Homo sapiens, OE33, 72 h, eso_OE33, −HGF); 5.52 µM in assay [7] (eso_OE33, +HGF (2 ng/mL)); 6.52 µM in assay [7] (eso_OE33, −HGF). For the same compound, the “downstream signaling: phosphorylation of AKT and ERK, level of cyclin D1” value in assay [5] is on record as “inhibits”. In assay [5], the “phosphorylation of HER2” value is reported as “inhibits”.

By IC50 is commonly meant the midpoint of a concentration-inhibition curve.
